Measured values from patent US7910609B2, “Inhibitors of integrin alpha2beta1 with modified urea moiety” (The Trustees Of The University Of Pennsylvania, priority 2005, dated 2011).

Assays:
integrin α2β1 = molecular target: T1, integrin α2β1 (Homo sapiens, UniProt P05556+P17301); test: Platelet adhesion assay: washed human platelet binding to soluble type I collagen; assay type: cell-based
T1 construct: Human blood was obtained by venipuncture from healthy volunteers; endogenous in cells; host or cells: washed human platelets from blood of healthy volunteers
Procedure: The series of compounds was tested for the ability to block washed human platelet binding to soluble type I collagen. […] Further understanding was sought with respect to the SAR of the urea functionality and its spatial positioning.
(§1) Preparation of Washed Platelets. All Studies were Conducted Following IRB-approved protocols at the University of Pennsylvania. Human blood was obtained by venipuncture from healthy volunteers using 0.3% sodium citrate as anticoagulant, then acid-citrate-dextrose was added (1 mL per 10 mL blood). Platelet-rich plasma (PRP) was then prepared by centrifugation at 200 g for 20 min. Platelets were obtained from the PRP by addition of prostacyclin (PG I2: 0.1 μg/ml) followed by centrifugation at 1000 g for 10 min. The pelleted platelets were resuspended in HEPES/Tyrode's buffer (20 mM HEPES, 129 mM NaCl, 0.34 mM Na2HPO4, 2.9 mM KCl, 12 mM NaHCO3, 5 mM glucose, 1 mm MgCl2, pH 7.3) and repelleted by repeated PG I2 addition and centrifugation.
(§2) Platelet Adhesion Assays. Immulon 2 flat bottom 96-well Plates (Dynatech Labs, Burlington, Mass.) were coated with soluble type I collagen, fibronectin (FN) or osteopontin (OPN) (5 μg/ml) in PBS for 48 hrs at 4° C. The plates were then washed and blocked with BSA (5 mg/ml in PBS) for at least 24 hr. Adhesion assays using type I collagen contained test compound and 1.6×10^7 Platelets in GFP buffer in a final volume of 100 μl. The plates were then incubated for 30 min at 37° C. and washed with TBS (10 mM Tris, 150 mM NaCl, pH 7.4). Quantification of adherent platelets was performed as previously described.^[27] Briefly, the platelets were stained for acid phosphatase by adding 0.1 M sodium citrate (pH 5.4) with 0.1% Triton X-100 containing 5 mM p-nitrophenyl phosphate substrate (100 μl/well) and incubated for 40 min at 37° C. Color was then developed by the addition of 50 μl 2.0 M NaOH per well and the plates were read at 405 nm in a Molecular Devices Spectra Max M5 microplate reader. Adhesion to FN- and OPN-coated plates were performed similarly using a modified GFP buffer for resuspension (4 mM HEPES, 147 mM NaCl, 2.7 mM KCl, 0.35% BSA, 0.1% glucose, 1 mM MgCl2, 1 mM MnCl2, pH 7.4). Platelets were stimulated in OPN binding by addition of 20 μM ADP during incubation.^[28] The platelets in αvβ3-mediated binding to FN were pre-treated with 2 μg per mL ReoPro (abciximab, chimeric 7E3 Fab; Centocor, Malvern Pa.) for 20 minutes at RT.

integrin α5β1 = molecular target: T2, integrin α5β1 (Homo sapiens, UniProt P05556+P08648); test: Platelet adhesion to fibronectin (in the presence of abciximab); assay type: cell-based; settings: Table 2 selectivity, ligand Fibronectin
T2 construct: Platelets express several integrins, including αIIbβ3, αvβ3, α2β1, α5β1, and α6β1; endogenous in cells; host or cells: washed human platelets from blood of healthy volunteers
Procedure: as §1
as §2, with “The platelets in αvβ3-mediated binding to FN were pre-treated with 2 μg per mL ReoPro (abciximab, chimeric 7E3 Fab; Centocor, Malvern Pa.) for 20 minutes at RT.” left out

[1] = Table 1, washed human platelets, soluble type I collagen, 30 min at 37° C.
[2] = Compounds Produced in Accordance with Scheme 2

T2 sequence (P08648 42-894 limits assumed): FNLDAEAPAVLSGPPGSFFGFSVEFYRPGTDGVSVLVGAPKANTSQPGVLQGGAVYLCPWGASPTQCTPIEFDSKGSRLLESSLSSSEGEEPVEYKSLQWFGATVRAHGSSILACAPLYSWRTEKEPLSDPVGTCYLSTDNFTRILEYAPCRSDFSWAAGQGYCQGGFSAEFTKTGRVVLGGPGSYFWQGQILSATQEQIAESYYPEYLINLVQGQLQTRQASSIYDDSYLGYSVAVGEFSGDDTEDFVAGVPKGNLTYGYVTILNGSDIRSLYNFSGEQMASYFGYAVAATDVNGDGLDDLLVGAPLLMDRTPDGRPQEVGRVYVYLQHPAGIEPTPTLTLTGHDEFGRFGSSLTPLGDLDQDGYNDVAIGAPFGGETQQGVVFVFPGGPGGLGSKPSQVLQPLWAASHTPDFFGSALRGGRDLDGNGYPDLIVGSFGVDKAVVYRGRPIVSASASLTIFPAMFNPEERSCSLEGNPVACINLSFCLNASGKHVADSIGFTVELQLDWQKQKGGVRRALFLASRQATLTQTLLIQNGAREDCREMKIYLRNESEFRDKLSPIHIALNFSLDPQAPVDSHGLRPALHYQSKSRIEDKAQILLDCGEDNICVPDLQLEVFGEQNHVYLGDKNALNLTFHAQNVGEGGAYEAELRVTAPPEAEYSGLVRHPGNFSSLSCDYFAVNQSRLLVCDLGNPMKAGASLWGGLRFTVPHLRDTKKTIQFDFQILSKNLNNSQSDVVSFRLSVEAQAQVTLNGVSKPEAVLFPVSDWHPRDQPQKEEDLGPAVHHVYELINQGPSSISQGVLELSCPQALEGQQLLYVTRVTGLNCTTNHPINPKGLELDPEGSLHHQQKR
T2 sequence (P08648 895-1049 limits assumed): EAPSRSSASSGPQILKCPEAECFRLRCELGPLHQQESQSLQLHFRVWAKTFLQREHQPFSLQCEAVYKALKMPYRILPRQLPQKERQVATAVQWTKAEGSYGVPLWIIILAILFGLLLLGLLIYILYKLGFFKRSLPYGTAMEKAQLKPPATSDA
T2 sequence (P05556 21-798): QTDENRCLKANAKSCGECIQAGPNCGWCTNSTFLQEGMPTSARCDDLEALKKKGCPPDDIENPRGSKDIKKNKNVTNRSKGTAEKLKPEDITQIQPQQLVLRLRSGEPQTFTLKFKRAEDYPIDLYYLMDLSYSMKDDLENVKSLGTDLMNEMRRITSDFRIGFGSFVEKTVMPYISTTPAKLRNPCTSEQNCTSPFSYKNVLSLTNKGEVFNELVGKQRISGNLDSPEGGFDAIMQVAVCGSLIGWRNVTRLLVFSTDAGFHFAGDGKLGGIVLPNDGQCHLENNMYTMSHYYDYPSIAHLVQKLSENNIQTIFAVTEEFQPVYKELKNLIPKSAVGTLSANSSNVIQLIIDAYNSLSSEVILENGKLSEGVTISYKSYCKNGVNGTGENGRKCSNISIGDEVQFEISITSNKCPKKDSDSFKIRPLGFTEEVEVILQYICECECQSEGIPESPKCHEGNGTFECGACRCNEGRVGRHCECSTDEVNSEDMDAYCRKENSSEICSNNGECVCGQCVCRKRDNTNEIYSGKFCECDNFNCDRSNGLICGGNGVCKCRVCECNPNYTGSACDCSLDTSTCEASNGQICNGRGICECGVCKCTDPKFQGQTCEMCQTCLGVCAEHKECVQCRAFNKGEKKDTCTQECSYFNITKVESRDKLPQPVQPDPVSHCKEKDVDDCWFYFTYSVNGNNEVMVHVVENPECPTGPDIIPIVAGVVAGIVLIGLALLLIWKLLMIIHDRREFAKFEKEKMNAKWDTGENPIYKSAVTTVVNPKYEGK
T1 sequence (P17301 30-1181): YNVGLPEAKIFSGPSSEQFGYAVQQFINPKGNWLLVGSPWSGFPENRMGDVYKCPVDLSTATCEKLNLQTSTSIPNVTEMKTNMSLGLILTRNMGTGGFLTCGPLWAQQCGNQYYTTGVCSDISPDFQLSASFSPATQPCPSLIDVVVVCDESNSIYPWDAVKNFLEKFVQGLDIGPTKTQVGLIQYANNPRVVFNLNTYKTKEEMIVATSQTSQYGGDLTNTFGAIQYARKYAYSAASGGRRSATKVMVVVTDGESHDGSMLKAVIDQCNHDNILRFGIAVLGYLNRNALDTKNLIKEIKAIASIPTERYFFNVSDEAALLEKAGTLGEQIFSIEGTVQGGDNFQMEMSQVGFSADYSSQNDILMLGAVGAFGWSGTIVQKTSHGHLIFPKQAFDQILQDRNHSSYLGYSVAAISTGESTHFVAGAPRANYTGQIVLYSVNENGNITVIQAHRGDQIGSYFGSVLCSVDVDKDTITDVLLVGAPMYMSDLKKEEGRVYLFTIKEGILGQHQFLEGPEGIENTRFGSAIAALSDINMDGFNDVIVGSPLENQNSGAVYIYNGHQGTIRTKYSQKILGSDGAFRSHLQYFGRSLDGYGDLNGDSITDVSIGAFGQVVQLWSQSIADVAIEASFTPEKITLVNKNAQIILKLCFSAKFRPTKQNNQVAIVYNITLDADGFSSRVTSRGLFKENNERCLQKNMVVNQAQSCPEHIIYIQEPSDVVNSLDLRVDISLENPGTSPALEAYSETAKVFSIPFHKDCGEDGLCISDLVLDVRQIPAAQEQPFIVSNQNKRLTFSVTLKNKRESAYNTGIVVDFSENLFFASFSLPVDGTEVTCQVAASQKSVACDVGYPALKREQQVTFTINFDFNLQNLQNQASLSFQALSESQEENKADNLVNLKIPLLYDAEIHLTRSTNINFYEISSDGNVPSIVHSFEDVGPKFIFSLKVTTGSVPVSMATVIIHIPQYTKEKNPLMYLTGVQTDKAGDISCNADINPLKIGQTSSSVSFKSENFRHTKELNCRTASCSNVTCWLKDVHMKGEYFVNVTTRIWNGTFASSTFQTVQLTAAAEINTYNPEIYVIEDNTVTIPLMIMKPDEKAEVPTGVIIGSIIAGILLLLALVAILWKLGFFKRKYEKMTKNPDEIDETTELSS
T1 sequence (P05556 21-798): as the sequence (P05556 21-798) above

| SMILES | IC50 (integrin α2β1; [1]) [nM] | other results |
| --- | --- | --- |
| C[C@H](NC(=O)NC[C@H](NC(=O)C1N(S(=O)(=O)c2ccccc2)CSC1(C)C)C(=O)O)c1ccccc1 (some centres unmarked) [Compound 8] | > 500 | – |
| CC(C)(C)CNC(=O)NC[C@H](NC(=O)C1N(S(=O)(=O)c2ccccc2)CSC1(C)C)C(=O)O (some centres unmarked) [Compound 19] | 15 | – |
| CC1(C)SCN(S(=O)(=O)c2ccccc2)C1C(=O)N[C@@H](CNC(=O)NCC(c1ccccc1)c1ccccc1)C(=O)O (some centres unmarked) [Compound 20] | > 2000 | – |
| C[C@@H](NC(=O)NC[C@H](NC(=O)C1N(S(=O)(=O)c2ccccc2)CSC1(C)C)C(=O)O)c1ccccc1 (some centres unmarked) [Compound 7] | 22 | greater potency of (R) conformation (7) than (S) conformation (8) (integrin α2β1; 7 versus 8, platelet adhesion to type I collagen): > 25 fold |
| CC1(C)SCN(S(=O)(=O)c2ccccc2)C1C(=O)N[C@@H](CNC(=O)NC(c1ccccc1)c1ccccc1)C(=O)O (some centres unmarked) [Compound 21] | 320 | – |
| O=C(NCc1ccccc1)NCC(NC(=O)C1CCN1S(=O)(=O)c1ccccc1)C(=O)O (centres unmarked) [Compound 24, 2-[(1-Benzenesulfonyl-azetidine-2-carbonyl)-amino]-3-(3-benzyl-ureido)-propionic acid] | – | IC50 (integrin α2β1; [2]): 215 nM |
| CC1(C)SCN(S(=O)(=O)c2ccccc2)C1C(=O)N[C@@H](CNC(=S)NCc1ccccc1)C(=O)O (some centres unmarked) [Compound 6] | 7 | – |
| CC1OCN(S(=O)(=O)c2ccccc2)C1C(=O)NC(CNC(=O)NCc1ccccc1)C(=O)O (centres unmarked) [Compound 27, 2-[(3-Benzenesulfonyl-5-methyl-oxazolidine-4-carbonyl)-amino]-3-(3-benzyl-ureido)-propionic acid] | – | IC50 (integrin α2β1; [2]): 12 nM |
| CC1(C)SCN(S(=O)(=O)c2ccccc2)C1C(=O)N[C@@H](CNC(=O)NCC1CCCCC1)C(=O)O (some centres unmarked) [Compound 23] | 28 | – |
| CC1(C)SCN(S(=O)(=O)c2ccccc2)C1C(=O)N[C@@H](CNC(=O)NCCc1ccccc1)C(=O)O (some centres unmarked) [Compound 22] | 133 | – |

Now from value to compound, other results behind:

| IC50 (integrin α2β1; [1]) [nM] | SMILES | other results |
| --- | --- | --- |
| 8 | Cc1cccc(CNC(=O)NC[C@H](NC(=O)C2N(S(=O)(=O)c3ccccc3)CSC2(C)C)C(=O)O)c1 (some centres unmarked) [Compound 10] | IC50 (integrin α5β1): > 1000 nM |
| 4 | CC1(C)SCN(S(=O)(=O)c2ccccc2)C1C(=O)N[C@@H](CNC(=O)NCc1ccc(Br)cc1)C(=O)O (some centres unmarked) [Compound 16] | – |
| 41 | CC1(C)SCN(S(=O)(=O)c2ccccc2)C1C(=O)N[C@@H](CNC(=O)NCc1ccc(C(F)(F)F)cc1)C(=O)O (some centres unmarked) [Compound 17] | – |
| 6 | Cc1ccc(CNC(=O)NC[C@H](NC(=O)C2N(S(=O)(=O)c3ccccc3)CSC2(C)C)C(=O)O)cc1 (some centres unmarked) [Compound 11] | – |
| 6 | CC1(C)SCN(S(=O)(=O)c2ccccc2)C1C(=O)N[C@@H](CNC(=O)NCc1ccc(Cl)cc1)C(=O)O (some centres unmarked) [Compound 15] | IC50 (integrin α5β1): > 1000 nM |
| 4 | Cc1ccccc1CNC(=O)NC[C@H](NC(=O)C1N(S(=O)(=O)c2ccccc2)CSC1(C)C)C(=O)O (some centres unmarked) [Compound 9] | IC50 (integrin α5β1): > 1000 nM |
